Experimental data reported in patent publication US7792665B2, “Method for designing a compound based on the three dimensional structure of phosphoinositide dependent protein kinase 1 (PDK1)” (Medical Research Council, priority 2002, dated 2010).
Substitutions are numbered along the chain they refer to. “Also recorded” adds a separate entry of the source. Where a SMILES comes first, the peptide text is derived from it. [ ]: non-standard residue; d: D form. pT = C[C@@H](OP(=O)(O)O)[C@H](N)C(=O)O

Columns and labels:
[1] = biological target: T1, PDK1[R131A] (Homo sapiens, UniProt O15530, R131A); experiment: Surface plasmon resonance (BiaCore) binding, PDK1[R131A]
T1 construct: GST (N); made in house; host or cells: human embryonic kidney 293 cells (pEBG2T vector)
T1 sequence (O15530 1-556 R131A): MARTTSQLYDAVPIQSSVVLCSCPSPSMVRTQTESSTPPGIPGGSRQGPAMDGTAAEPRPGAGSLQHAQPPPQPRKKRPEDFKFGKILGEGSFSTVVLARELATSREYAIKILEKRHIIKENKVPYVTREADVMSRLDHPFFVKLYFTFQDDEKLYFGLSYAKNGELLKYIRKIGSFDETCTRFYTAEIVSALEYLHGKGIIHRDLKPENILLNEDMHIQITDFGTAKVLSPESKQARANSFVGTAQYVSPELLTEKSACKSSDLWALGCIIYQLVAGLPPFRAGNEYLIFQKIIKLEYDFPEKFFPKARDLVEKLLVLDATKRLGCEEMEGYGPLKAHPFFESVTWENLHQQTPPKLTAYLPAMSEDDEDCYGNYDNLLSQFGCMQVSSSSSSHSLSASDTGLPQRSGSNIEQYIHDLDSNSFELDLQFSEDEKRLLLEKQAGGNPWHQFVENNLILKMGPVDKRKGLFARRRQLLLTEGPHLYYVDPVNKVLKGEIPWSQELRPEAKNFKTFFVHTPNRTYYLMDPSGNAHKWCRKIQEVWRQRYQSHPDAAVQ
Protocol: (§1) Binding and activation of wild type and mutant forms of PDK1 to a phosphopeptide derived from the hydrophobic motif of S6K1. The binding of the wild type (wt) PDK1 and indicated mutants to a phosphopeptide comprising the hydrophobic motif of S6K1 (S6K-pHM: […]*YVAPSV, where T* indicates phospho-threonine, SEQ ID NO:104) was analysed by surface plasmon resonance as described in the Materials and Methods.
(§2) A. The sensor chip SA was coated with 12RUs of the biotinylated S6K-pHM peptide and the binding was analysed following injection of 270 nM wild type PDK1, PDK1 [T148A] and PDK1 [K76A]. […] (data not shown).
Binding was analysed in a BiaCore 3000 system (BiaCore AB, Stevenage, UK). Biotinylated S6K-pHM (Biotin-C12-[…](P)YVAPSV) (SEQ ID NO:104) or the non-phosphorylated form of this peptide S6K-HM was bound to an streptavidin-coated Sensor chip (SA) (12 response units, RU). 30 μl of wild type or the indicated mutant GST-PDK1 were injected at a flow rate of 30 μl/min, in buffer HBS-P (10 mM HEPES pH 7.4, 0.15M NaCl, 0.005% (by vol) polysorbate-20) supplemented with 1 mM DTT. Specific interactions between 56K-pHM and PDK1 proteins were obtained between the concentration range of 2-2150 nM PDK1. Steady state binding was determined at each concentration. Dissociation of PDK1 from the phospho-peptide was monitored over a 1 min period. […]

[2] = biological target: T2, wild type PDK1 (Homo sapiens, UniProt O15530); experiment: PDK1 catalytic activity towards T308tide, activation by peptides, wild type PDK1; type: biochemical; parameters: made in house; details: T308tide substrate
T2 sequence (O15530 1-556): T1 sequence (O15530 1-556 R131A) with A131R
Protocol: C. Activation of the indicated forms of PDK1 by 56K-pHM and S6K-HM. PDK1 activity was measured using the peptide substrate (T308tide) in the presence of the indicated concentrations of 56K-pHM (closed circles) and S6K-HM (open circles) as described in the methods. Assays were performed in triplicate and similar results obtained in 2 separate experiments. The results are the average—SD for a single experiment.
The ability of wild type and mutant PDK1 to phosphorylate the synthetic peptide T308tide ([…] ([Biondi et al., 2000]) (SEQ ID NO:108) was carried out in 30 μl assays containing 100 ng of wild type or mutant PDK1, 50 mM Tris/HCl pH 7.5, 0.1% 13-mercaptoethanol, 10 mM MgCl2, 100 μM [32γ P]ATP (200 cpm/pmol), 0.5 μM microcystin-LR, 1 mM T308tide in the presence or absence of the indicated concentrations of the 56K-pHM peptide ([…](P)YVAPSV) (SEQ ID NO:104) or 56K-HM. peptide ([…]) (SEQ ID NO:105). After incubation for 10 min at 30° C., 25 μl of the resultant mixture was spotted into P81 phosphocellulose paper (2×2 cm) and the papers washed and analysed as described previously for assays of MAP kinase. Control assays were carried out in parallel in which either PDK1, or peptide substrate were omitted; these values were always less than 5% of the activity measured in the presence of these reagents. […]

[3] = biological target: T2, wild type PDK1; experiment: Surface plasmon resonance (BiaCore) binding of hydrophobic motif peptides, wild type PDK1; parameters: made in house; host or cells: human embryonic kidney 293 cells (pEBG2T vector); details: BiaCore
Protocol: as §1, §2
B. As in A. except that binding was analysed over a range of PDK1 concentrations (2-2150 nM). The response level at the steady state binding is plotted versus the log of the PDK1 concentration. The estimated Kd was obtained by fitting the data to a sigmoid curve using Kaleidagraph software.
Binding was analysed in a BiaCore 3000 system (BiaCore AB, Stevenage, UK). Biotinylated S6K-pHM (Biotin-C12-[…](P)YVAPSV) (SEQ ID NO:104) or the non-phosphorylated form of this peptide S6K-HM was bound to an streptavidin-coated Sensor chip (SA) (12 response units, RU). 30 μl of wild type or the indicated mutant GST-PDK1 were injected at a flow rate of 30 μl/min, in buffer HBS-P (10 mM HEPES pH 7.4, 0.15M NaCl, 0.005% (by vol) polysorbate-20) supplemented with 1 mM DTT. Specific interactions between 56K-pHM and PDK1 proteins were obtained between the concentration range of 2-2150 nM PDK1. Steady state binding was determined at each concentration. Dissociation of PDK1 from the phospho-peptide was monitored over a 1 min period. Regeneration of the sensor chip surface was performed with 1{tilde over (0)} μl injections of 0.05% SDS. […] (RUmax=435). For all PDK1 construct tested, the off rates for S6Kp-HM were high in comparison to those of PIFtide binding with the time taken for 50% dissociation to occur for 56K-pHM is 30s compared to 1000s for PIFtide.

CC(C)C[C@H](NC(=O)[C@H](Cc1ccccc1)NC(=O)[C@@H](NC(=O)[C@H](CCC(N)=O)NC(=O)[C@H](CC(N)=O)NC(=O)[C@H](C)NC(=O)[C@H](CO)NC(=O)[C@H](CCC(=O)O)NC(=O)[C@@H](N)CO)C(C)C)C(=O)NCC(=O)N[C@@H](Cc1ccccc1)C(=O)N[C@H](C(=O)N[C@@H](Cc1ccc(O)cc1)C(=O)N[C@H](C(=O)N[C@@H](C)C(=O)N1CCC[C@H]1C(=O)N[C@@H](CO)C(=O)N[C@H](C(=O)O)C(C)C)C(C)C)[C@@H](C)OP(=O)(O)O [S6K-pHM] (H-SESANQVFLGF[pT]YVAPSV-OH; N-terminus and C-terminus assumed) was tested, and the “binding of PDK1[R131A] to peptide” value [1] was “No detectable binding; also recorded: did not detectably interact”, the “maximal activation of PDK1” value [2] was 5 fold and the “time taken for 50% dissociation of PDK1 from peptide” value ([3]; all PDK1 constructs tested) was 30 s. The “lower affinity of wild type PDK1 for peptide in comparison to PIFtide” value ([3]; overall) was “approximately 100 fold”.
